Patent EP4707280A1, “1,4-CINEOLE DERIVATIVE AND INTERMEDIATE THEREOF, HERBICIDE CONTAINING SAID DERIVATIVE AS ACTIVE INGREDIENT, METHOD FOR USING HERBICIDE, AND METHOD FOR PREPARING AGROCHEMICAL COMPOSITION” (HOKKO CHEMICAL INDUSTRY CO., LTD., priority 2023, dated 2024)

Experiments:
Type in all cases: in vivo
Echinochloa crus-galli [1] = assay: Test Example 8: herbicidal effect test by stem and leaf treatment in upland field (low dose); details: Echinochloa crus-galli; 7.5 g per 10 ares; sprayed seven days after sowing, upland soil; 14 days after application; read-out: weed inhibition rate
Digitaria ciliaris [2] = assay: as above; details: Digitaria ciliaris; 7.5 g per 10 ares; sprayed seven days after sowing, upland soil; 14 days after application; read-out: weed inhibition rate
Scirpus juncoides [3] = assay: Test Example 2: herbicidal effect test by application during growth period of paddy rice; details: Schoenoplectiella juncoides; 120 g per 10 ares; applied seven days after sowing, flooded pots; 14 days after application; read-out: weed inhibition rate
Outline: (§1)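 Paddy soil in flooded pots (water depth about 3 cm) was sown with weed seeds and kept in a glass greenhouse. Seven days after sowing, a diluted emulsifiable concentrate was applied by dropper at 120 g active ingredient per 10 ares. Weed inhibition was evaluated 14 days after application, in duplicate.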

[4] = test system: Echinochloa crus-galli var. formosensis; assay: as above; details: Echinochloa crus-galli; 120 g per 10 ares; applied seven days after sowing, flooded pots; 14 days after application; read-out: weed inhibition rate
Outline: as §1

Echinochloa crus-galli [5] = assay: Test Example 3: herbicidal effect test by soil application in upland field; details: Echinochloa crus-galli, 120 g per 10 ares, sprayed one day after sowing, 14 days after application, read-out: weed inhibition rate
Outline: (§2)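 Pre-emergence test: seeds mixed into top 1 cm of alluvial loam upland soil in pots; emulsifiable concentrate diluted in water sprayed on soil one day after sowing at 100 L/10 a, 120 g a.i./10 a. Weed inhibition rate (%) scored at 14 days, in duplicate.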

Digitaria ciliaris [6] = assay: as above; details: Digitaria ciliaris, 120 g per 10 ares, sprayed one day after sowing, 14 days after application, read-out: weed inhibition rate
Outline: as §2

[7] = test system: Echinochloa crus-galli var. formosensis; assay: Test Example 5: herbicidal effect test by soil application in paddy rice (low dose); details: Echinochloa crus-galli, soil, 336 h; 7.5 g per 10 ares; applied immediately after sowing, flooded pots; 14 days after application; read-out: weed inhibition rate
Outline: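 Paddy-soil pots, weeds sown 0–1 cm deep and flooded to about 3 cm in a greenhouse. Emulsifiable concentrate diluted in water and dropped in right after sowing at 7.5 g active ingredient per 10 ares. Duplicates; effect scored 14 days after application.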

Echinochloa crus-galli [8] = assay: Test Example 7: herbicidal effect test by soil application in upland field (low dose); details: Echinochloa crus-galli, 7.5 g per 10 ares, sprayed one day after sowing, 14 days after application, read-out: weed inhibition rate
Outline: (§3)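 Upland alluvial loam pots, seeds mixed into top 1 cm of soil; one day after sowing, diluted emulsifiable concentrate sprayed on soil at 100 L/10 a, giving 7.5 g active ingredient/10 a. Duplicate pots; weed inhibition rate (%) scored 14 days after application.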

Digitaria ciliaris [9] = assay: as above; details: Digitaria ciliaris, 7.5 g per 10 ares, sprayed one day after sowing, 14 days after application, read-out: weed inhibition rate
Outline: as §3

Scirpus juncoides [10] = assay: Test Example 1: herbicidal effect test by soil application in paddy rice; details: Schoenoplectiella juncoides, soil, 336 h; 120 g active ingredient per 10 ares; applied immediately after sowing, flooded pots; 14 days after application; read-out: weed inhibition rate
Outline: (§4)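 Paddy soil in Wagner pots (1/10,000 acre), fertilized and puddled; 30 seeds per species sown at 0–1 cm, flooded to ~3 cm, greenhouse. Water-diluted emulsifiable concentrate dropped onto flooded pots right after sowing at 120 g active ingredient per 10 ares.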

[11] = test system: Echinochloa crus-galli var. formosensis; assay: as above; details: Echinochloa crus-galli, soil, 336 h; 120 g active ingredient per 10 ares; applied immediately after sowing, flooded pots; 14 days after application; read-out: weed inhibition rate
Outline: as §4

Digitaria ciliaris [12] = assay: Test Example 4: herbicidal effect test by stem and leaf treatment in upland field; details: Digitaria ciliaris; 120 g per 10 ares; sprayed seven days after sowing, upland soil; 14 days after application; read-out: weed inhibition rate
[13] = test system: Echinochloa crus-galli var. formosensis; assay: Test Example 6: herbicidal effect test by application during growth period of paddy rice (low dose); details: Echinochloa crus-galli; 7.5 g per 10 ares; applied seven days after sowing, flooded pots; 14 days after application; read-out: weed inhibition rate
Outline: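 Paddy-soil pots, flooded ~3 cm after sowing weed seeds at 0-1 cm depth, greenhouse-grown. Seven days after sowing, diluted emulsifiable concentrate applied by dropper at 7.5 g active ingredient per 10 ares. Weed inhibition rate (%) scored 14 days after application, in duplicate.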

Echinochloa crus-galli [14] = assay: Test Example 4: herbicidal effect test by stem and leaf treatment in upland field; details: Echinochloa crus-galli; 120 g per 10 ares; sprayed seven days after sowing, upland soil; 14 days after application; read-out: weed inhibition rate

CC(C)C12CC(OCc3c(F)cccc3Cl)C(C)(CC1Cl)O2 (stereo not shown) [1-1315, 5-chloro-2-[(2-chloro-6-fluorophenyl)methoxy]-1-methyl-4-isopropyl-7-oxabicyclo[2.2.1]heptane]
≥ 80%: inhibition at 75 g/ha (Echinochloa crus-galli [1]) | inhibition at 75 g/ha (Digitaria ciliaris [2]) | inhibition at 1200 g/ha (Scirpus juncoides [3]) | inhibition at 1200 g/ha [4] | inhibition at 1200 g/ha (Echinochloa crus-galli [5]) | inhibition at 1200 g/ha (Digitaria ciliaris [6]) | inhibition at 75 g/ha [7] | inhibition at 75 g/ha (Echinochloa crus-galli [8]) | inhibition at 75 g/ha (Digitaria ciliaris [9]) | pest or weed control at 1200 g/ha (Scirpus juncoides [10]) | pest or weed control at 1200 g/ha [11] | inhibition at 1200 g/ha (Digitaria ciliaris [12]) | inhibition at 75 g/ha [13] | inhibition at 1200 g/ha (Echinochloa crus-galli [14])

CC(C)C12CC(OCc3ccccn3)C(C)(CC1Cl)O2 (stereo not shown) [1-1320, 2-[(5-chloro-4-isopropyl-1-methyl-7-oxabicyclo[2.2.1]heptan-2-yl)oxymethyl]pyridine]
≥ 80%: inhibition at 75 g/ha (Echinochloa crus-galli [1]) | inhibition at 75 g/ha (Digitaria ciliaris [2]) | inhibition at 1200 g/ha (Scirpus juncoides [3]) | inhibition at 1200 g/ha [4] | inhibition at 1200 g/ha (Echinochloa crus-galli [5]) | inhibition at 1200 g/ha (Digitaria ciliaris [6]) | inhibition at 75 g/ha [7] | inhibition at 75 g/ha (Echinochloa crus-galli [8]) | inhibition at 75 g/ha (Digitaria ciliaris [9]) | pest or weed control at 1200 g/ha (Scirpus juncoides [10]) | pest or weed control at 1200 g/ha [11] | inhibition at 1200 g/ha (Digitaria ciliaris [12]) | inhibition at 75 g/ha [13] | inhibition at 1200 g/ha (Echinochloa crus-galli [14])

CC(C)C12CC(OCc3cccs3)C(C)(CC1Cl)O2 (stereo not shown) [1-1323, 2-chloro-1-isopropyl-4-methyl-5-(2-thienylmethoxy)-7-oxabicyclo[2.2.1]heptane]
≥ 80%: inhibition at 75 g/ha (Echinochloa crus-galli [1]) | inhibition at 75 g/ha (Digitaria ciliaris [2]) | inhibition at 1200 g/ha (Scirpus juncoides [3]) | inhibition at 1200 g/ha [4] | inhibition at 1200 g/ha (Echinochloa crus-galli [5]) | inhibition at 1200 g/ha (Digitaria ciliaris [6]) | inhibition at 75 g/ha [7] | inhibition at 75 g/ha (Echinochloa crus-galli [8]) | inhibition at 75 g/ha (Digitaria ciliaris [9]) | pest or weed control at 1200 g/ha (Scirpus juncoides [10]) | pest or weed control at 1200 g/ha [11] | inhibition at 1200 g/ha (Digitaria ciliaris [12]) | inhibition at 75 g/ha [13] | inhibition at 1200 g/ha (Echinochloa crus-galli [14])

CC(C)C12CC(OCc3ccsc3)C(C)(CC1Cl)O2 (stereo not shown) [1-1324, 2-chloro-1-isopropyl-4-methyl-5-(3-thienylmethoxy)-7-oxabicyclo[2.2.1]heptane]
≥ 80%: inhibition at 75 g/ha (Echinochloa crus-galli [1]) | inhibition at 75 g/ha (Digitaria ciliaris [2]) | inhibition at 1200 g/ha (Scirpus juncoides [3]) | inhibition at 1200 g/ha [4] | inhibition at 1200 g/ha (Echinochloa crus-galli [5]) | inhibition at 1200 g/ha (Digitaria ciliaris [6]) | inhibition at 75 g/ha [7] | inhibition at 75 g/ha (Echinochloa crus-galli [8]) | inhibition at 75 g/ha (Digitaria ciliaris [9]) | pest or weed control at 1200 g/ha (Scirpus juncoides [10]) | pest or weed control at 1200 g/ha [11] | inhibition at 1200 g/ha (Digitaria ciliaris [12]) | inhibition at 75 g/ha [13] | inhibition at 1200 g/ha (Echinochloa crus-galli [14])

CC(C)=CCOC1CC2(C(C)C)OC1(C)CC2Br (stereo not shown) [1-1334, 5-bromo-1-methyl-2-(3-methylbut-2-enoxy)-4-isopropyl-7-oxabicyclo[2.2.1]heptane]
≥ 80%: inhibition at 75 g/ha (Echinochloa crus-galli [1]) | inhibition at 75 g/ha (Digitaria ciliaris [2]) | inhibition at 1200 g/ha (Scirpus juncoides [3]) | inhibition at 1200 g/ha [4] | inhibition at 1200 g/ha (Echinochloa crus-galli [5]) | inhibition at 1200 g/ha (Digitaria ciliaris [6]) | inhibition at 75 g/ha [7] | inhibition at 75 g/ha (Echinochloa crus-galli [8]) | inhibition at 75 g/ha (Digitaria ciliaris [9]) | pest or weed control at 1200 g/ha (Scirpus juncoides [10]) | pest or weed control at 1200 g/ha [11] | inhibition at 1200 g/ha (Digitaria ciliaris [12]) | inhibition at 75 g/ha [13] | inhibition at 1200 g/ha (Echinochloa crus-galli [14])

CC(C)C12CC(OCc3ccccc3)C(C)(CC1Br)O2 (stereo not shown) [1-1342, 5-bromo-1-methyl-2-phenylmethoxy-4-isopropyl-7-oxabicyclo[2.2.1]heptane]
≥ 80%: inhibition at 75 g/ha (Echinochloa crus-galli [1]) | inhibition at 75 g/ha (Digitaria ciliaris [2]) | inhibition at 1200 g/ha (Scirpus juncoides [3]) | inhibition at 1200 g/ha [4] | inhibition at 1200 g/ha (Echinochloa crus-galli [5]) | inhibition at 1200 g/ha (Digitaria ciliaris [6]) | inhibition at 75 g/ha [7] | inhibition at 75 g/ha (Echinochloa crus-galli [8]) | inhibition at 75 g/ha (Digitaria ciliaris [9]) | pest or weed control at 1200 g/ha (Scirpus juncoides [10]) | pest or weed control at 1200 g/ha [11] | inhibition at 1200 g/ha (Digitaria ciliaris [12]) | inhibition at 75 g/ha [13] | inhibition at 1200 g/ha (Echinochloa crus-galli [14])

CC(C)C12CC(OCc3ccccn3)C(C)(CC1Br)O2 (stereo not shown) [1-1386, 2-[(5-bromo-1-methyl-4-isopropyl-7-oxabicyclo[2.2.1]heptan-2-yl)oxymethyl]pyridine]
≥ 80%: inhibition at 75 g/ha (Echinochloa crus-galli [1]) | inhibition at 75 g/ha (Digitaria ciliaris [2]) | inhibition at 1200 g/ha (Scirpus juncoides [3]) | inhibition at 1200 g/ha [4] | inhibition at 1200 g/ha (Echinochloa crus-galli [5]) | inhibition at 1200 g/ha (Digitaria ciliaris [6]) | inhibition at 75 g/ha [7] | inhibition at 75 g/ha (Echinochloa crus-galli [8]) | inhibition at 75 g/ha (Digitaria ciliaris [9]) | pest or weed control at 1200 g/ha (Scirpus juncoides [10]) | pest or weed control at 1200 g/ha [11] | inhibition at 1200 g/ha (Digitaria ciliaris [12]) | inhibition at 75 g/ha [13] | inhibition at 1200 g/ha (Echinochloa crus-galli [14])

CC(C)C12CC(OCc3cccs3)C(C)(CC1Br)O2 (stereo not shown) [1-1389, 5-bromo-1-methyl-4-isopropyl-2-(thiophen-2-ylmethoxy)-7-oxabicyclo[2.2.1]heptane]
≥ 80%: inhibition at 75 g/ha (Echinochloa crus-galli [1]) | inhibition at 75 g/ha (Digitaria ciliaris [2]) | inhibition at 1200 g/ha (Scirpus juncoides [3]) | inhibition at 1200 g/ha [4] | inhibition at 1200 g/ha (Echinochloa crus-galli [5]) | inhibition at 1200 g/ha (Digitaria ciliaris [6]) | inhibition at 75 g/ha [7] | inhibition at 75 g/ha (Echinochloa crus-galli [8]) | inhibition at 75 g/ha (Digitaria ciliaris [9]) | pest or weed control at 1200 g/ha (Scirpus juncoides [10]) | pest or weed control at 1200 g/ha [11] | inhibition at 1200 g/ha (Digitaria ciliaris [12]) | inhibition at 75 g/ha [13] | inhibition at 1200 g/ha (Echinochloa crus-galli [14])
